Experiments:
[1] = test system: prolactin secretion; assay: inhibition of prolactin secretion in reserpinized rats; format: in vivo, rats of the Sprague-Dawley strain; conditions: percent prolactin inhibition; 50 mcg/kg intraperitoneally; serum one hour after treatment; reserpine-pretreated male rats
Description: As previously stated, the compounds of this invention (wherein neither R^3 nor R^4 is H) are receptor agonists; ie, they are capable of increasing the quantities of various neurohormones--dopamine and norepi- nephrine in particular--available for interaction with specific receptors. For example, the compound according to XX wherein R^1 and R^2 are H and R^3 and R^4 are both n-propyl, is a specific dopamine D-2 agonist.
Adult male rats of the Sprague-Dawley strain weighing about 200 g were housed in an air-conditioned room with controlled lighting (lights on 6 a.m. - 8 p.m.) and fed lab chow and water ad libitum. Each rat received an intraperitoneal injection of 2.0 mg of reserpine in aqueous suspension 18 hours before administration of the test drug. The purpose of the reserpine was to keep the rat prolactin levels uniformly elevated. The compound was dissolved in 10 percent ethanol, and injected intraperitoneally to groups of ten rats at preselected dose levels. A control group of 10 intact males received an equivalent amount of 10 percent ethanol. One hour after treatment, all rats were killed by decapitation, and 150 µl aliquots of serum were assayed for prolactin.
The difference between the prolactin levels of the treated rats and the control rats, divided by the prolactin level of the control rats gives the percent inhibition of prolactin secretion attributable to the given dose. […]

[2] = test system: 6-hydroxydopamine-lesioned rats; assay: turning behavior in 6-hydroxydopamine-lesioned rats; format: in vivo; conditions: 1000 mcg/kg; first 15 minutes after the end of the latency period
Description: Dopamine agonists are also known to affect turning behavior in 6-hydroxydopamine-lesioned rats in a test procedure designed to uncover compounds useful for the treatment of Parkinsonism. In this test, nigroneostriatal-lesioned rats are employed, as prepared by the procedure of Ungerstedt and Arbuthnott, Brain Res, 24, 485 (1970). A compound having dopamine agonist activity causes the rats to turn in circles contralateral to the side of the lesion. After a latency period, which varies from compound to compound, the number of turns is counted over a 15-minute period.
Results obtained from such testing for (±)-2-amino-6-di-n-propylamino-5,6,7,8-tetrahydrobenzothiazole dihydrobromide are set forth in Table 2 below. In the table, column 1 gives the dose and column 2 the average number of turns observed in first 15 minutes after the end of the latency period.

[3] = test system: anesthetized spontaneously hypertensive rats; assay: blood pressure in anesthetized spontaneously hypertensive rats; format: in vivo; conditions: anesthetized SHR
Experimental: Compounds according to XX, particularly those wherein both R^3 and R^4 are methyl, reduce the blood pressure of anesthetized spontaneously hypertensive rats, as illustrated by the following experiment: • Adult male spontaneously hypertensive rats (SHR) (Taconic Farms, Germantown, New York), weighing approximately 300 g. were anesthetized with pentobarbital sodium (60 mg./kg., i.p.). The trachea was cannulated and the SHR respired room air. Pulsatile arterial blood pressure was measured from a cannulated carotid artery using a Statham transducer (P23 ID). Mean arterial blood pressure was calculated as diastolic blood pressure plus 1/3 pulse pressure. Cardiac rate was monitored by a cardiotachometer which was triggered by the systolic pressure pulse. Drug solutions were administered i.v. through a catheter placed in a femoral vein.
Arterial blood pressure and cardiac rate were recorded on a multichannel oscillograph (Beckman, Model R511A). Fifteen minutes were allowed to elapse following surgery for equilibration of the preparation.
Table 3 which follows gives the results of this test using (±)-2-amino-6-di-n-propyl-5,6,7,8-tetra- hydrobenzothiazole dihydrobromide. In Table 3, column 1 gives the dose level, column 2, the change in mean arterial blood pressure.

[4] = test system: conscious SHR; assay: hypotensive action in conscious SHR; format: in vivo; conditions: 1 mg/kg i.v.
Experimental: In another test for hypotensive action conscious SHR, cannulated in the femoral artery and vein, were used. The drug was administered i.v. (±)-2-Amino-6-dimethylamino-5,6,7,8-tetrahydrobenzothiazole was tested in this system as the dihydrobromide salt at a 1 mg/kg dose. In the table, column 1 gives time in minutes after injection and columns 2 and 3 the mean percent decrease in arterial pressure and heart rate respectively for that time interval.

SMILES: CCCN(CCC)C1CCc2nc(N)sc2C1 (racemic) [(±)-2-Amino-6-di-n-propylamino-5,6,7,8-tetrahydrobenzothiazole]
- % Inhibition [1]: 30%
- Average number of Turns [2]: 51
- Decrease in Mean Arterial Blood Pressure ([3]; 1 mcg/kg i.v.): -16.1 ± 2.4
- Decrease in Mean Arterial Blood Pressure ([3]; 10 mcg/kg i.v.): -21.0 ± 2.0
- Decrease in Mean Arterial Blood Pressure ([3]; 100 mcg/kg i.v.): -34.1 ± 3.2
- Decrease in Mean Arterial Blood Pressure ([3]; 1000 mcg/kg i.v.): +13.5 ± 4.4

SMILES: CN(C)C1CCc2nc(N)sc2C1 (racemic) [(±)-2-Amino-6-dimethylamino-5,6,7,8-tetrahydrobenzothiazole]
- PERCENT CHANGE FROM CONTROL Blood Pressure ([4]; 5 minutes after injection): -3.6%
- PERCENT CHANGE FROM CONTROL Heart Rate ([4]; 5 minutes after injection): -12.3%
- PERCENT CHANGE FROM CONTROL Blood Pressure ([4]; 15 minutes after injection): -17.1%
- PERCENT CHANGE FROM CONTROL Heart Rate ([4]; 15 minutes after injection): -17.7%
- PERCENT CHANGE FROM CONTROL Blood Pressure ([4]; 30 minutes after injection): -18.6%
- PERCENT CHANGE FROM CONTROL Heart Rate ([4]; 30 minutes after injection): -15.5%
- PERCENT CHANGE FROM CONTROL Blood Pressure ([4]; 45 minutes after injection): -16.9%
- PERCENT CHANGE FROM CONTROL Heart Rate ([4]; 45 minutes after injection): -8.3%
- PERCENT CHANGE FROM CONTROL Blood Pressure ([4]; 60 minutes after injection): -17.2%
- PERCENT CHANGE FROM CONTROL Heart Rate ([4]; 60 minutes after injection): -5.2%
- PERCENT CHANGE FROM CONTROL Blood Pressure ([4]; 90 minutes after injection): -16.9%
- PERCENT CHANGE FROM CONTROL Heart Rate ([4]; 90 minutes after injection): -0.7%
- PERCENT CHANGE FROM CONTROL Blood Pressure ([4]; 120 minutes after injection): -15.8%
- PERCENT CHANGE FROM CONTROL Heart Rate ([4]; 120 minutes after injection): -4.1%
- PERCENT CHANGE FROM CONTROL Blood Pressure ([4]; 180 minutes after injection): -14.7%
- PERCENT CHANGE FROM CONTROL Heart Rate ([4]; 180 minutes after injection): -4.1%

From EP0207696A1, “Dialkylaminotetrahydrobenzothiazoles and oxazoles” (ELI LILLY AND COMPANY, priority 1985, dated 1987)
